Where a name gives a salt, the structure may show the parent alone.
Each compound was assayed against T1, ACC1 from rat liver (Rattus norvegicus, UniProt P11497) (assay: Direct inhibition of ACC1 activity (14C-bicarbonate incorporation)). Conditions: ACC1 from rat liver.
T1 construct: The livers (for ACC1 preparation) or skeletal muscle tissue (for ACC2 preparation) are removed; from tissue; host or cells: liver of male CD rats (fasted, then fed a high sucrose diet)
Format: biochemical
Method: [1] Preparation of ACC1 and ACC2.
Male CD rats weighing 150-200 g are fasted for 2 days and then fed a high sucrose diet (AIN-76A rodent diet; Cat # D10001, Research Diets Inc., New Brunswick, N.J.), for 3 days at which time they are sacrificed by CO2 asphyxiation. The livers (for ACC1 preparation) or skeletal muscle tissue (for ACC2 preparation) are removed, rinsed in ice-cold phosphate-buffered saline (PBS), and homogenized in 5 volumes of homogenization buffer (50 mM potassium phosphate, pH 7.5, 10 mM EDTA, 10 mM 2-mercaptoethanol, 2 mM benzamidine, 0.2 mM phenylmethylsulfonylfluoride (PMSF), 5 mg/L each leupeptin, aprotinin, and antitrypsin) in a Waring® blender for 1 minute at 4° C. All subsequent operations are carried out at 4° C. The homogenate is made 3% with respect to polyethylene glycol (PEG) by the addition of 50% PEG solution and centrifuged at 20,000×g for 15 minutes. The resulting supernatant is adjusted to 5% PEG with the addition of 50% PEG solution and stirred for 5 minutes. The pellet (contains ACC activity) is collected by centrifugation at 20,000×g for 20 minutes, rinsed with Ice-cold doubly distilled water to remove excess PEG and re-suspended in one-fourth the original homogenate volume with homogenization buffer. Ammonium sulfate (200 g/liter) is slowly added with stirring. After 45 minutes the enzyme is collected by centrifugation for 30 minutes at 20,000×g, re-suspended in 10 ml of 50 mM HEPES, pH7.5, 0.1 mM DTT, 1.0 mM EDTA, and 10% glycerol and desalted on a Sephadex™ G-25 column (2.5 cm-x 50 cm) (Pharmacia, Piscataway N.J. now GE Healthcare) […] equilibrated with the same buffer. The desalted enzyme preparation is stored in aliquots at −70° C. Immediately prior to use, frozen ACC1 or ACC2 aliquots are thawed, diluted to 500 μg/ml in buffer containing 50 mM HEPES, pH7.5, 1.0 mM MgCl2, 10 mM tripotassium citrate, 2.0 mM dithiothreitol (DTT), and 0.75 mg/ml fatty acid-free bovine serum albumin (BSA) and pre-incubated at 37° C. for 30 minutes.
[2] Measurement of ACC inhibition. The procedures for measuring ACC1 inhibition and ACC2 inhibition are identical except for the source of the isozyme. For measurement of ACC activity and assessment of ACC inhibition, test compounds are dissolved in dimethylsulfoxide (DMSO) and 1 μL aliquots are placed in 0.5 ml polypropylene tubes. Control tubes contain 1 μL of DMSO alone. Tubes are incubated at 37° C. in a constant temperature water bath. […] The reaction is then initiated by the addition of 10 μL of preincubated ACC fraction prepared as described above. After 7 minutes the reaction is terminated by the addition of 50 μL of 6N HCl and a 150 μL aliquot of the reaction mixture is transferred to glass scintillation vials and evaporated to dryness at 90° C. for at least 1 hour. The dried vials are then cooled, 0.5 ml of water and 5.5 ml of Ready Safe liquid scintillation fluid (Beckman Coulter Inc., Fullerton, Calif.) are added, and the radioactivity is determined using a liquid scintillation counter. Tubes that received HCl before ACC served as blanks.

Row | SMILES | IC50 [µM]
1 | Cc1cc(C(=O)N2CCC3(CC2)CC(=O)c2cc(C(=O)O)ccc2O3)cc2cn[nH]c12 [Ex. A33, 1′-[(7-methyl-1H-indazol-5-yl)carbonyl]-4-oxo-3,4-dihydrospiro[chromene-2,4′-piperidine]-6-carboxylic acid trifluoroacetic acid salt] | 0.303
2 | Cc1cc(C(=O)N2CCC3(CC2)CC(=O)c2ccc(-c4ccccc4)cc2O3)cc2cn[nH]c12 [Ex. A34, 1′-[(7-methyl-1H-indazol-5-yl)carbonyl]-7-phenylspiro[chromene-2,4′-piperidin]-4(3H)-one] | 0.395
3 | Cc1cc(C(=O)N2CCC3(CC2)CC(=O)c2cc(S(C)(=O)=O)ccc2O3)cc2cn[nH]c12 [Ex. A35, 1′-[(7-methyl-1H-indazol-5-yl)carbonyl]-6-(methylsulfonyl)spiro[chromene-2,4′-piperidin]-4(3H)-one] | 1.11
4 | Cc1cc2c(cc1C)C(=O)CC1(CCN(C(=O)c3cc(Cl)c4[nH]ncc4c3)CC1)O2 [Ex. B1, 1′-[(7-chloro-1H-indazol-5-yl)carbonyl]-6,7-dimethylspiro[chromene-2,4′-piperidin]-4(3H)-one] | 0.0241
5 | COc1ccc2c(c1)OC1(CCN(C(=O)c3cc(Cl)c4[nH]ncc4c3)CC1)CC2=O [Ex. B7, 1′-[(7-chloro-1H-indazol-5-yl)carbonyl]-7-methoxyspiro[chromene-2,4′-piperidin]-4(3H)-one] | 0.166
6 | O=C1CC2(CCN(C(=O)c3cc(Cl)c4[nH]ncc4c3)CC2)Oc2cc(Cl)c(F)cc21 [Ex. B10, 7-chloro-1′-[(7-chloro-1H-indazol-5-yl)carbonyl]-6-fluorospiro[chromene-2,4′-piperidin]-4(3H)-one] | 0.209
7 | COc1ccc2c(c1F)C(=O)CC1(CCN(C(=O)c3cc(Cl)c4[nH]ncc4c3)CC1)O2 [Ex. B11] | 0.217
8 | O=C1CC2(CCN(C(=O)c3cc(Cl)c4[nH]ncc4c3)CC2)Oc2ccc(C(F)(F)F)cc21 [Ex. B12, 1′-[(7-chloro-1H-indazol-5-yl)carbonyl]-6-(trifluoromethyl)spiro[chromene-2,4′-piperidin]-4(3H)-one] | 0.257
9 | N#Cc1ccc2c(c1)C(=O)CC1(CCN(C(=O)c3cc(Cl)c4[nH]ncc4c3)CC1)O2 [Ex. B14, 1′-[(7-chloro-1H-indazol-5-yl)carbonyl]-4-oxo-3,4-dihydrospiro[chromene-2,4-piperidine]carbonitrile] | 0.331
10 | CCc1cc(C(=O)N2CCC3(CC2)CC(=O)c2cc(C)c(C)cc2O3)cc2cn[nH]c12 [Ex. C1, 1′-[(7-ethyl-1H-indazol-5-yl)carbonyl]-6,7-dimethylspiro[chromene-2,4′-piperidin]-4(3H)-one] | 0.0175
11 | CCc1cc(C(=O)N2CCC3(CC2)CC(=O)c2cc(OC)ccc2O3)cc2cn[nH]c12 [Ex. C2, 1′-[(7-ethyl-1H-indazol-5-yl)carbonyl]-6-methoxyspiro[chromene-2,4′-piperidin]-4(3H)-one] | 0.0226
12 | CCc1cc(C(=O)N2CCC3(CC2)CC(=O)c2c(OC)cc(C)cc2O3)cc2cn[nH]c12 [Ex. C3, 1′-[(7-ethyl-1H-indazol-5-yl)carbonyl]-5-methoxy-7-methylspiro[chromene-2,4′-piperidin]-4(3H)-one] | 0.0295
13 | CCc1cc(C(=O)N2CCC3(CC2)CC(=O)c2cc(Cl)c(C)cc2O3)cc2cn[nH]c12 [Ex. C4, 6-chloro-1′-[(7-ethyl-1H-indazol-5-yl)carbonyl]-7-methylspiro[chromene-2,4′-piperidin]-4(3H)-one] | 0.0306
14 | CCc1cc(C(=O)N2CCC3(CC2)CC(=O)c2cc(C(=O)OC)ccc2O3)cc2cn[nH]c12 [Ex. C5, methyl 1′-[(7-ethyl-1H-indazol-5-yl)carbonyl]-4-oxo-3,4-dihydrospiro[chromene-2,4′-piperidine]-6-carboxylate] | 0.0495
15 | Cc1cc2c(cc1C)C(=O)CC1(CCN(C(=O)c3ccc4c(cnn4C)c3)CC1)O2 [Ex. D1, 6,7-dimethyl-1′-[(1-methyl-1H-indazol-5-yl)carbonyl]spiro[chromene-2,4′-piperidin]-4(3H)-one] | 0.0579
16 | COc1ccc2c(c1)C(=O)CC1(CCN(C(=O)c3ccc4c(cnn4C)c3)CC1)O2 [Ex. D2, 6-methoxy-1′-[(1-methyl-1H-indazol-5-yl)carbonyl]spiro[chromene-2,4′-piperidin]-4(3H)-one] | 0.216
17 | Cc1cc2c(cc1Cl)C(=O)CC1(CCN(C(=O)c3ccc4c(cnn4C)c3)CC1)O2 [Ex. D3, 6-chloro-7-methyl-1′-[(1-methyl-1H-indazol-5-yl)carbonyl]spiro[chromene-2,4′-piperidin]-4(3H)-one] | 0.25
18 | Cc1cc2c(cc1C)C(=O)CC1(CCN(C(=O)c3cc(C)c4[nH]nc(C)c4c3)CC1)O2 [Ex. E3, 1′-[(3,7-dimethyl-1H-indazol-5-yl)carbonyl]-6,7-dimethylspiro[chromene-2,4′-piperidin]-4(3H)-one] | 0.0098
19 | COC(=O)c1ccc2c(c1)C(=O)CC1(CCN(C(=O)c3cc(C)c4[nH]nc(C)c4c3)CC1)O2 [Ex. E4, methyl 1′-[(3,7-dimethyl-1H-indazol-5-yl)carbonyl]-4-oxo-3,4-dihydrospiro[chromene-2,4′-piperidine]-6-carboxylate] | 0.0543
20 | Cc1cc2c(cc1C)C(=O)CC1(CCN(C(=O)c3ccc4c(C)n[nH]c4c3)CC1)O2 [Ex. F1, 6,7-dimethyl-1′-[(3-methyl-1H-indazol-6-yl)carbonyl]spiro[chromene-2,4′-piperidin]-4(3H)-one] | 0.0357
21 | COc1ccc2c(c1)C(=O)CC1(CCN(C(=O)c3ccc4c(C)n[nH]c4c3)CC1)O2 [Ex. F2, 6-methoxy-1′-[(3-methyl-1H-indazol-yl)carbonyl]spiro[chromene-2,4′-piperidin]-4(3H)-one] | 0.0492
22 | Cc1cc2c(cc1Cl)C(=O)CC1(CCN(C(=O)c3ccc4c(C)n[nH]c4c3)CC1)O2 [Ex. F3, 6-chloro-7-methyl-1′-[(3-methyl-1H-indazol-6-yl)carbonyl]spiro[chromene-2,4′-piperidin]-4(3H)-one] | 0.107
23 | COC(=O)c1ccc2c(c1)C(=O)CC1(CCN(C(=O)c3ccc4c(C)n[nH]c4c3)CC1)O2 [Ex. F4, methyl 1′-[(3-methyl-1H-indazol-6-yl)carbonyl]-4-oxo-3,4-dihydrospiro[chromene-2,4′-piperidine]-6-carboxylate] | 0.126
24 | Cc1n[nH]c2cc(C(=O)N3CCC4(CC3)CC(=O)c3cc(C(=O)O)ccc3O4)ccc12 [Ex. F5, 1′-[(3-methyl-1H-indazol-6-yl)carbonyl]-4-oxo-3,4-dihydrospiro[chromene-2,4′-piperidine]-6-carboxylic acid trifluoroacetic acid salt] | 0.586
25 | Cc1cc2c(cc1C)C(=O)CC1(CCN(C(=O)c3ccc4cn[nH]c4c3)CC1)O2 [Ex. G1, 1-(1H-indazol-6-ylcarbonyl)-6,7-dimethylspiro[chromene-2,4′-piperidin]-4(3H)-one trifluoroacetic acid salt] | 0.271
26 | Cc1cc2c(cc1C)C(=O)CC1(CCN(C(=O)c3ccc4cnn(C)c4c3)CC1)O2 [Ex. G2, 6,7-dimethyl-1′-[(1-methyl-1H-indazol-6-yl)carbonyl]spiro[chromene-2,4′-piperidin]-4(3H)-one] | 0.167
27 | Cc1cc2c(cc1C)C(=O)CC1(CCN(C(=O)c3ccc4c(C)nn(C)c4c3)CC1)O2 [Ex. G3, 1′-[(1,3-dimethyl-1H-indazol-6-yl)carbonyl]-6,7-dimethylspiro[chromene-2,4′-piperidin]-4(3H)-one] | 0.0754
28 | CCc1nn(C)c2cc(C(=O)N3CCC4(CC3)CC(=O)c3cc(C)c(C)cc3O4)ccc12 [Ex. G4, 1′-[(3-ethyl-1-methyl-1H-indazol-6-yl)carbonyl]-6,7-dimethylspiro[chromene-2,4′-piperidin]-4(3H)-one] | 0.0801
29 | Cc1cc2c(cc1C)C(=O)CC1(CCN(C(=O)c3cccc4cn[nH]c34)CC1)O2 [Ex. H1, 1′-(1H-indazol-7-ylcarbonyl)-6,7-dimethylspiro[chromene-2,4′-piperidin]-4(3H)-one] | 0.163

— US20090270435A1 (priority 2006, published 2009)
